Source: patent US20030152512A1, “Imaging thrombus with glycoprotein llb/llla antagonists” (priority 2001, published 2003)
Non-standard residues stand in square brackets, D forms with d. Residues, ends and D or L forms follow the SMILES beside them. *: point of attachment. X1 = O=C(c1ccc(NN=Cc2ccccc2S(=O)(=O)O)nc1)*; NMeR = CN[C@@H](CCCNC(=N)N)C(=O)O; HYNIC = NNc1ccc(C(=O)*)cn1; 3Amb = NCc1cccc(C(=O)O)c1

Columns and labels:
[1] = Blood clearance in canine deep vein thrombosis (DVT) model; conditions: both, mongrel, dog, iv
Protocol: (§1) Canine Deep Vein Thrombosis Model: This model incorporates the triad of events (hypercoagulatible state, period of stasis, low shear environment) essential for the formation of a venous fibrin-rich actively growing thrombus. The procedure was as follows: Adult mongrel dogs of either sex (9-13 kg) were anesthetized with pentobarbital sodium (35 mg/kg,i.v.) and ventilated with room air via an endotracheal tube (12 strokes/min, 25 ml/kg). For arterial pressure determination, the right femoral artery was cannulated with a saline-filled polyethylene catheter (PE-240) and connected to a Statham pressure transducer (P23ID; Oxnard, Calif.). Mean arterial blood pressure was determined via damping the pulsatile pressure signal. Heart rate was monitored using a cardiotachometer (Biotach, Grass Quincy, Mass.) triggered from a lead II electrocardiogram generated by limb leads. The right femoral vein was cannulated (PE-240) for drug administration. A 5 cm segment of both jugular veins was isolated, freed from fascia and circumscribed with silk suture. A microthermister probe was placed on the vessel which serves as an indirect measure of venous flow. A balloon embolectomy catheter was utilized to induce the 15 min period of stasis during which time a hypercoagulatible state was then induced using 5 U thrombin (American Diagnosticia, Greenwich Conn.) administered into the occluded segment. Fifteen minutes later, flow was reestablished by deflating the balloon. The radiopharmaceutical was infused during the first 5 minutes of reflow and the rate of incorporation monitored using gamma scintigraphy.

[2] = tested on: venous thrombus; assay: Thrombus imaging in canine deep vein thrombosis (DVT) model, gamma scintigraphy (camera ROI); assay type: in vivo, dog; conditions: for efficacy as thrombus imaging agent (in words): dog DVT model; for Thrombus to Blood Ratio in DVT Model (Camera ROI) / Thrombus to Muscle Ratio in DVT Model (Camera ROI): dog
Protocol: as §1

[3] = molecular target: T1, Platelet GPIIb/IIIa (Canis lupus familiaris, UniProt A0A8I3N5G5+A0A8I3PMU9); assay: Platelet GPIIb/IIIa binding assay (inhibition of 125I-fibrinogen binding to activated platelets); conditions: reagents (compounds of Examples 1-3); activated canine platelets
T1 construct: from tissue
T1 sequence (A0A8I3N5G5 1-1047): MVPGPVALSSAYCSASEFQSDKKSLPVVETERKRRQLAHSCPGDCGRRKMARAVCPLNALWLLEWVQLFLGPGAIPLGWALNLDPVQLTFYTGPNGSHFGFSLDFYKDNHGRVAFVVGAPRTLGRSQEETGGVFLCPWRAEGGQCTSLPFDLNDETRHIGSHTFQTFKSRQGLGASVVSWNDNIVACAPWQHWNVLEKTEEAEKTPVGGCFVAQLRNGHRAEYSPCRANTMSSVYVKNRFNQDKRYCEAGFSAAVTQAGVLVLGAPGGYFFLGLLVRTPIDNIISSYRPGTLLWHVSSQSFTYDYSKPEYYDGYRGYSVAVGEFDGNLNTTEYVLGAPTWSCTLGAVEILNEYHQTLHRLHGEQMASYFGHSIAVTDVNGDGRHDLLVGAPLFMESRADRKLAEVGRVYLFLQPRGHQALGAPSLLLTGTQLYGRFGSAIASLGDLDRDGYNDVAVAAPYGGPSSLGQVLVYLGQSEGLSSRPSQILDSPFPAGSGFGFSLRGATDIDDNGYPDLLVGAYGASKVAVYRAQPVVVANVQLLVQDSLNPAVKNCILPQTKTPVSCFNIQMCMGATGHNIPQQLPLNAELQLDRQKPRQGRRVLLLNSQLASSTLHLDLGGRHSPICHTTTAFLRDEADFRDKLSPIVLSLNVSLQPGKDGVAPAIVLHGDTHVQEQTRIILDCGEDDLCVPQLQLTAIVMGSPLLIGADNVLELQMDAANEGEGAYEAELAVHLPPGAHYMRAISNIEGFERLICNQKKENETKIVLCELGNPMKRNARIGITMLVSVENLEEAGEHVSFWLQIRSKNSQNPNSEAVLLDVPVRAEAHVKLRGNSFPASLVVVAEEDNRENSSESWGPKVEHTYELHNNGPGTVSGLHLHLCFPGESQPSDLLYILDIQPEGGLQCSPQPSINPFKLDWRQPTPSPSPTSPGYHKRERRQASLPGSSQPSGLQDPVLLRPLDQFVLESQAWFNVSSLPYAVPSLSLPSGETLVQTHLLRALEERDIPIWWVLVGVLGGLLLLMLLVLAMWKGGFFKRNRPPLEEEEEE
T1 sequence (A0A8I3PMU9 1-919): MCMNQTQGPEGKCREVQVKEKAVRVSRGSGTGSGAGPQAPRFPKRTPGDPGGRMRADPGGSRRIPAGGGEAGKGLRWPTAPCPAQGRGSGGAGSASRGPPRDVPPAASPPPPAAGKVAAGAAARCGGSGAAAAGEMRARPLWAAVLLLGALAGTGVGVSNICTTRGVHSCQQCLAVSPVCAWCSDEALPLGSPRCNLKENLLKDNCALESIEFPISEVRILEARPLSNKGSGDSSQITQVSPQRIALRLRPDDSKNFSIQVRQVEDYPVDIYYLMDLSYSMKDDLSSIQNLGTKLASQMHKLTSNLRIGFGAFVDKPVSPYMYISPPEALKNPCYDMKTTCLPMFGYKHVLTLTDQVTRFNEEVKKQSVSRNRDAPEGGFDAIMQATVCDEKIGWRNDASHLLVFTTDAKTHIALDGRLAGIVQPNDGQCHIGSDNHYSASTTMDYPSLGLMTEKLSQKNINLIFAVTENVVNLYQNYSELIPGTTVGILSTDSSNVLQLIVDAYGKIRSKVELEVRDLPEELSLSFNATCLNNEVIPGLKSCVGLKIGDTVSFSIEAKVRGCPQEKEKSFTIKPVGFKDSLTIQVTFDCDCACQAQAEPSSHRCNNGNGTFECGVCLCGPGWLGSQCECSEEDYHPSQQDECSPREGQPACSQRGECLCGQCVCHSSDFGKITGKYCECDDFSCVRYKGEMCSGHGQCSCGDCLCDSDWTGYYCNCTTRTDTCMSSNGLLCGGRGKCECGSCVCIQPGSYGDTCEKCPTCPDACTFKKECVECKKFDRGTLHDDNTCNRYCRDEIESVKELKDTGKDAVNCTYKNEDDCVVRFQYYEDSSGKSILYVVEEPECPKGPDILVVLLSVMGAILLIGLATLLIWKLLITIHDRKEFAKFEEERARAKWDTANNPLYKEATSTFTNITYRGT
Protocol: Platelet GPIIb/IIIa Binding Assay:
During isolation, platelets were rendered quiescent by the addition of aspirin and when appropriate, primed by the addition of PGE 1. Experimentation was completed in a microtiter format with final concentrations between 1 and 2×10^7 platelets/well. Platelets were activated by the addition of CaCl2 (2 mM) and thrombin (0.2 U/mL) while non-activated platelets received buffer. Hirudin (0.5 U/mL) was added to stop the activation reaction.

Row | SMILES | tissue uptake at 0 h [1] | tissue uptake at 0.25 h [1] | tissue uptake at 0.5 h [1] | tissue uptake at 1 h [1] | tissue uptake at 1.5 h [1] | tissue uptake at 2 h [1] | efficacy as thrombus imaging agent (in words) [2] | Thrombus to Blood Ratio in DVT Model (Camera ROI) ([2]; time 30 min) | Thrombus to Muscle Ratio in DVT Model (Camera ROI) ([2]; time 30 min) | Thrombus to Blood Ratio in DVT Model (Camera ROI) ([2]; time 120 min) | Thrombus to Muscle Ratio in DVT Model (Camera ROI) ([2]; time 120 min) | IC50 [3] | further results
1 | CC(C)[C@H]1NC(=O)c2cc(cc(CNC(=O)[C@H](CC(=O)O)NC(=O)c3ccc(NN)nc3)c2)CNC(=O)[C@H](CC(=O)O)NC(=O)CNC(=O)[C@H](CCCNC(=N)N)N(C)C1=O (99mTc complex, metal not drawn) [Example 4] | 0.141 %ID/g | 0.07 %ID/g | 0.067 %ID/g | 0.053 %ID/g | 0.046 %ID/g | 0.045 %ID/g | effective thrombus imaging agents | 2.29 ± 0.60 | 4.31 ± 1.33 | 3.36 ± 0.99 | 4.70 ± 1.05 |  | Thrombus to Blood Ratio in DVT Model (Camera ROI) ([2]; time 15 min, listed as Ex. 4): 2.00 ± 0.25; Thrombus to Muscle Ratio in DVT Model (Camera ROI) ([2]; time 15 min, listed as Ex. 4): 3.18 ± 0.45; Thrombus to Blood Ratio in DVT Model (Camera ROI) ([2]; time 60 min, listed as Ex. 4): 2.86 ± 0.31; Thrombus to Muscle Ratio in DVT Model (Camera ROI) ([2]; time 60 min, listed as Ex. 4): 4.31 ± 0.79
2 | CN1C(=O)[C@@H](CCCCNC(=O)c2ccc(NN)nc2)NC(=O)c2cccc(c2)CNC(=O)[C@H](CC(=O)O)NC(=O)CNC(=O)[C@@H]1CCCNC(=N)N (99mTc complex, metal not drawn) [Example 5] (cyclo([NMeR]GD[3Amb][dK](HYNIC))) | 0.11 ± 0.01 %ID/g | 0.039 ± 0.003 %ID/g | 0.027 ± 0.003 %ID/g | 0.021 ± 0.002 %ID/g | 0.018 ± 0.002 %ID/g | 0.017 ± 0.002 %ID/g | effective thrombus imaging agents | 1.86 ± 0.23 | 2.27 ± 0.29 | 2.57 ± 0.25 | 3.34 ± 0.18 |  | Thrombus to Blood Ratio in DVT Model (Camera ROI) ([2]; time 15 min, listed as Ex. 5): 1.64 ± 0.21; Thrombus to Muscle Ratio in DVT Model (Camera ROI) ([2]; time 15 min, listed as Ex. 5): 2.12 ± 0.29; Thrombus to Blood Ratio in DVT Model (Camera ROI) ([2]; time 60 min, listed as Ex. 5): 2.13 ± 0.23; Thrombus to Muscle Ratio in DVT Model (Camera ROI) ([2]; time 60 min, listed as Ex. 5): 2.66 ± 0.29
3 | CC(C)[C@H]1NC(=O)c2cc(cc(CNC(=O)[C@H](CC(=O)O)NC(=O)c3ccc(N/N=C/c4ccccc4S(=O)(=O)O)nc3)c2)CNC(=O)[C@H](CC(=O)O)NC(=O)CNC(=O)[C@H](CCCNC(=N)N)N(C)C1=O [Example 1] |  |  |  |  |  |  |  |  |  |  |  | 7 nM | 
4 | CN1C(=O)[C@@H](CCCCNC(=O)c2ccc(NN=Cc3ccccc3S(=O)(=O)O)nc2)NC(=O)c2cccc(c2)CNC(=O)[C@H](CC(=O)O)NC(=O)CNC(=O)[C@@H]1CCCNC(=N)N [Example 2, cyclo{N-Me-Arg-Gly-Asp-Mamb-D-Lys([2-[[[5-[carbonyl]-2-pyridinyl]hydrazono]methyl]-benzenesulfonic acid])}] (cyclo([NMeR]GD[3Amb][dK](X1))) |  |  |  |  |  |  |  |  |  |  |  | 14 nM | 
5 | N=C(N)c1ccc(C2=NOC(CC(=O)NCC(NC(=O)c3ccc(NN=Cc4ccccc4S(=O)(=O)O)nc3)C(=O)O)C2)cc1 (stereo not drawn) [Example 3] |  |  |  |  |  |  |  |  |  |  |  | 66 nM | 
6 | CC(C)[C@H]1NC(=O)c2cc(cc(NC(=O)CCCCCNC(=O)c3ccc(NN)nc3)c2)CNC(=O)[C@H](CC(=O)O)NC(=O)CNC(=O)[C@H](CCCNC(=N)N)N(C)C1=O [Example 7, ^99mTc(cyclo(D-Val-NmeArg-Gly-Asp-Mamb(hydrazino-nicotinyl-5-Aca)))(tricine)(TPPTS), metal not drawn] | 0.119 ± 0.003 %ID/g | 0.08 ± 0.003 %ID/g | 0.066 ± 0.004 %ID/g | 0.059 ± 0.001 %ID/g | 0.05 ± 0.002 %ID/g | 0.049 ± 0.001 %ID/g | effective thrombus imaging agents | 3.10 ± 0.42 | 4.80 ± 0.38 | 6.60 ± 1.42 | 9.90 ± 2.64 |  | Thrombus to Blood Ratio in DVT Model (Camera ROI) ([2]; time 15 min, listed as Ex. 7): 2.10 ± 0.10; Thrombus to Muscle Ratio in DVT Model (Camera ROI) ([2]; time 15 min, listed as Ex. 7): 3.40 ± 0.30; Thrombus to Blood Ratio in DVT Model (Camera ROI) ([2]; time 60 min, listed as Ex. 7): 5.30 ± 0.91; Thrombus to Muscle Ratio in DVT Model (Camera ROI) ([2]; time 60 min, listed as Ex. 7): 7.00 ± 1.40
